# Test results: ChEMBL document CHEMBL3639109, “Macrocyclic integrase inhibitors” (2013)
# Biological target: Gag-Pol polyprotein (Human immunodeficiency virus type 1 group M subtype B (isolateBRU/LAI) (HIV-1), UniProt P03367)
# Assay: Inhibition Assay: Inhibition of HIV integrase.
smiles,measurement,value
CNS(=O)(=O)CCCCNC(=O)OC(C)(C)C,IC50,1200 nM
CNS(=O)(=O)CCCCN,IC50,360 nM
CNS(=O)(=O)CCCCCl,IC50,1000 nM
COC(=O)c1nc(Br)c2cccnc2c1OCc1ccccc1,IC50,950 nM
CCOC(=O)c1cc(F)ccc1C#N,IC50,68000 nM
CNS(=O)(=O)CCCCN=[N+]=[N-],IC50,250 nM
CNS(=O)(=O)CCCCC#N,IC50,1600 nM
COC(=O)c1nc(Br)c2cccnc2c1OS(=O)(=O)c1ccc(C)cc1,IC50,200 nM
